Legend:
[1] = system: viral protein glycosylation; conditions: cited from earlier work
HSV = conditions: cited from earlier work
HIV glycoproteins = conditions: cited from earlier work; for formation of syncytia: HIV
Herpes infections = conditions: in man; cited from earlier work
[2] = at high dosage; cited from earlier work
HSV1 and HSV2 = conditions: cited from earlier work
HSV2 strain HG52 = experiment: plaque-reduction assay, HSV2 strain HG52 in MRC5 cells; type: cell-based, HSV2 strain HG52; human embryonic fibroblast cells (MRC5); conditions: Human alphaherpesvirus 2, 72 h, 3 days incubation, read-out: ED50 HSVII
Protocol: (§1) Antiviral activity of the compounds of formula (1) can assessed by the plaque-reduction assay as previously described by Tyms et al., J. Antimicrobial Chemotherapy, 8, 65-72 (1981). Briefly, human embryonic fibroblast cells (MRC5) were cultured in 24-well tissue culture trays in the presence of Eagles' minimum essential medium (MEM) supplemented with 10% fetal calf serum. When cell monolayers were semi-confluent, they were inoculated with 30-50 plaque-forming units of HSV2 strain HG52 or HSV1 strain 17[…]. General Virology, 55, 315-331 (1981). […] After 3 days incubation, cells were fixed in 10% formalin in saline and subsequently stained with 0.3% methylene blue. Dose-responselines were plotted from the mean number of plaques present versus the log of the concentration of the compound. The 50% effective dose (ED50) was computed after linear regression analysis.

HSV1 strain 17i = experiment: plaque-reduction assay, HSV1 strain 17i in MRC5 cells; type: cell-based, HSV1 strain 17i; human embryonic fibroblast cells (MRC5); conditions: Human alphaherpesvirus 1, 72 h, 3 days incubation, read-out: ED50 HSVI
Protocol: as §1

## 2-deoxy-2-fluoroglucose
[1]
  inhibition of viral protein glycosylation: inhibit viral protein glycosylation by a different mechanism

## O=CC[C@@H](O)[C@H](O)[C@H](O)CO [2-deoxy-D-glucose]
HSV
  activity against HSV: active against HSV
HIV glycoproteins
  formation of syncytia: block the formation of syncytia
  expression of HIV glycoproteins: inhibit expression of HIV glycoproteins
Herpes infections
  efficacy in the treatment of Herpes infections: has shown efficacy in the treatment of Herpes infections in man

## O=CC[C@@H](O)[C@H](O)[C@H](O)CO [2-deoxyglucose]
[1]
  inhibition of viral protein glycosylation: inhibit viral protein glycosylation by a different mechanism

## Nc1nc2c(ncn2COCCO)c(=O)[nH]1 [Acyclovir]
[2]
  solubility: Poor solubility at high dosage
HSV1 and HSV2
  antiviral effect: potent antiviral effect

## CCCC(=O)O[C@H]1CN2CC[C@H](O)[C@@H]2[C@@H](O)[C@@H]1O [MDL 28,574, [1S-(1α,6β,7α,8β,8aβ)]-octahydro-1,6,7,8-indolizinetetrol 6-butanoate]
HSV2 strain HG52
  EC50: ≤ 22 µg/mL
HSV1 strain 17i
  EC50: ≤ 75 µg/mL

## Cc1ccc(C(=O)O[C@H]2CN3CC[C@H](O)[C@@H]3[C@@H](O)[C@@H]2O)cc1 [MDL 29,204]
HSV2 strain HG52
  EC50: ≤ 20 µg/mL

## CCC=CCC(=O)O[C@H]1CN2CC[C@H](O)[C@@H]2[C@@H](O)[C@@H]1O [MDL 29,513, [1S-(1α,6β,7α,8β,8aβ)]-octahydro-1,6,7,8-indolizinetetrol 6-(3-hexenoate)]
HSV2 strain HG52
  EC50: ≤ 5 µg/mL
HSV1 strain 17i
  EC50: ≤ 5 µg/mL

## CCCCCCCC(=O)O[C@H]1CN2CC[C@H](O)[C@@H]2[C@@H](O)[C@@H]1O [MDL 29,797, [1S-(1α,6β,7α,8β,8aβ)]-octahydro-1,6,7,8-indolizinetetrol 6-octanoate]
HSV2 strain HG52
  EC50: ≤ 5 µg/mL
HSV1 strain 17i
  EC50: ≤ 10 µg/mL

## O=C(O[C@H]1CN2CC[C@H](O)[C@@H]2[C@@H](O)[C@@H]1O)c1ccccc1 [MDL 43,305, [1S-(1α,6β,7α,8β,8aβ)]-octahydro-1,6,7,8-indolizinetetrol 6-benzoate]
HSV2 strain HG52
  EC50: ≤ 20 µg/mL

## CCC(O)[C@H](N)C(=O)O (stereo partly drawn) [β-hydroxy-norvaline]
HIV glycoproteins
  formation of syncytia: block the formation of syncytia
  expression of HIV glycoproteins: inhibit expression of HIV glycoproteins

From US5385911A, “Anti-herpes castanospermine esters” (priority 1990, dated 1995)
